PubChem BioAssay AID2305 (GlaxoSmithKline (GSK), 2010)

System: P. falciparum 3D7 growth, pLDH absorbance
Experiment: blood-stage malaria parasite growth potency – strain 3D7, dose response (AID 2305)

Row | Structure (SMILES) | IC50 [µM]
1 | N=C(N)c1ccc(C=CC(=O)NCC(O)CNC(=O)C=Cc2ccc(C(=N)N)cc2)cc1 (centres undefined) | 0.03
2 | COc1ccc(C)c(Nc2ccnc(Nc3cccc(-c4nc5ccccc5[nH]4)c3)n2)c1 | 0.72
3 | COc1ccc2nc(C)cc(NN=Cc3ccc([N+](=O)[O-])o3)c2c1 | 0.7
4 | Cc1cc(NC(=O)NCCN2CCC(NS(=O)(=O)c3ccc(Br)cc3)C2)c2ccccc2n1 (centres undefined) | 0.6
5 | Cc1ccc(C(c2nnnn2C2CCCC2)N(Cc2ccco2)Cc2ccccc2Cl)cc1 (centres undefined) | 0.96
6 | Cc1cccc(CNc2nc(C)cc(N[C@@H](Cc3ccccc3)C(=O)NCCc3ccccc3)n2)c1 | 0.67
7 | Fc1ccc(-c2cc(NCCCn3ccnc3)nc(-c3cccnc3)n2)cc1 | 0.97
8 | CS(=O)(=O)N(c1cccc(F)c1)c1cc(C(=O)N[C@@H](Cc2ccccc2)[C@H](O)CNCc2cccc(C(F)(F)F)c2)cc(N2CCCC2=O)c1 | 0.91
9 | COCCCNC(=O)C1CCN(C(c2ccc(Cl)cc2)c2ccc(Cl)cc2)CC1 | 0.92
10 | Cc1ccc(N2C(=O)C3C(C2=O)[C@]2(c4ccccc4)C(=O)[C@@]3(c3ccccc3)C(c3ccccc3)=C2c2ccccc2)c(C)c1 (some centres undefined) | 0.53
11 | Cc1ccc(NC(=O)c2ccc3ncccc3c2)cc1OC1CCN(CCC(C)C)CC1 | 0.69
12 | COc1cccc(Nc2nccc(NCC(O)c3ccc(C(F)(F)F)cc3)n2)c1 (centres undefined) | 0.66
13 | CC(C)c1ccc2[nH]c(C(=O)NC3CCC(N4CCCc5ccc(C#N)cc5C4)CC3)cc2c1 (centres undefined) | 1.09
14 | CC(Cc1ccc(OCCCCOc2ccccc2)cc1)NCCCc1nc2ccccc2[nH]1 (centres undefined) | 0.98
15 | CC(=O)Nc1ccc2[nH]cc(C3CCN(CCC4CCN(C(=O)/C=C/c5ccc(Cl)c(Cl)c5)CC4)CC3)c2n1 | 0.52
16 | CCCCC(CC)C(=O)C(NC(=O)[C@H](CSC(c1ccccc1)(c1ccccc1)c1ccccc1)NC(=O)OC(C)(C)C)C(=O)OC (some centres undefined) | 1.02
17 | O=C(Nc1ccc(Oc2ccccc2)cc1)N1CCC(CCN2CCC(c3c[nH]c4ccccc34)CC2)CC1 | 0.8
18 | COc1cc(C(=O)NC2CCN(Cc3ccccc3)CC2)ccc1-c1nc2cc(Cl)c(C)cc2[nH]1 | 0.3
19 | COC(=O)c1ccc(CC(C)NCC(O)c2ccc3ccc4ccccc4c3c2)cc1 (centres undefined) | 0.22
20 | COc1ccc2nccc(NN=Cc3cccc(F)c3)c2c1 | 0.75
21 | COc1cc2c(cc1OCCN1CCC(N3CCCCC3)CC1)N(C(=O)/C=C/c1ccccc1Cl)CC2 | 0.28
22 | O=c1cc(NC[C@H]2CCC[C@@H]2NCc2cc(Br)cc(Br)c2)[nH]c2ccccc12 | 0.68
23 | Cc1cc(C(F)(F)F)n2nc(C3CCN(Cc4cc(C)c(O)c(C)c4)C3)cc2n1 (centres undefined) | 0.76
24 | CCCCOc1cc(C)nc2ccc(NC(=O)COCC(=O)Nc3ccc4nc(C)cc(OCCCC)c4c3)cc12 | 1

Row | Structure (SMILES) | IC50 [µM]
25 | COc1cc(/C=C/C(=O)NC2CCC(N3CCC(c4ccccc4C)CC3)CC2)cc(OC)c1 (centres undefined) | 0.98
26 | CC(C)CNCc1cccc(-c2cccc(CN(C(=O)c3cccs3)C3CCN(Cc4ccccc4)CC3)c2)c1 | 0.9
27 | O=C(Nc1cccc(-c2cccc(-c3nc4ccc(F)cc4[nH]3)c2)c1)Nc1ccc2c(c1)OCO2 | 0.14
28 | Cc1cc(-c2ccc3c(c2)CCN(CCC2CCC(NC(=O)/C=C/c4cccc(Cl)c4)CC2)CC3)on1 (centres undefined) | 0.59
29 | CN(C)Cc1ccc2cc(NC(=O)c3ccc(-c4ccc(Cl)cc4)cc3)ccc2c1 | 1.34
30 | CC(C)(C)c1ccc(CN2CCC(CNC(=O)c3cc(-c4ccccc4C(F)(F)F)cs3)C2)cc1 (centres undefined) | 1.24
31 | COCCN1CCC(NCC(C)(C)c2nc(-c3ccc(Cl)c(O)c3)c(-c3ccncc3)[nH]2)CC1 | 0.72
32 | Fc1ccc(Nc2ccnc3cc(-c4ccc(CNCCN5CCOCC5)o4)ccc23)c(Cl)c1 | 0.19
33 | NC1(C(=O)O)Cc2ccc(Cl)cc2C1 (centres undefined) | 0.73
34 | O=C(/C=C/c1ccc(Cl)c(Cl)c1)NCCCCCN1CCC(c2[nH]nc(-c3ccccc3)c2Br)CC1 | 0.72
35 | CO/C(=C\C=C\c1cc2cc(Cl)c(Cl)cc2[nH]1)C(=O)NCCCN1CCN(c2ccc(OC)cc2)CC1 | 0.7
36 | Cc1cccc(-c2cccc(CNc3nc(NCCc4ccc(O)cc4)nc(N4CCNCC4)n3)c2)c1 | 1.19
37 | Cc1cc(NCCCCCCNc2cc(C)nc3c(C)cccc23)c2cccc(C)c2n1 | 0.41
38 | Cc1nc(NCc2ccccc2)cc(Nc2cc(NCc3ccccc3)nc(C)n2)n1 | 0.97
39 | NC1CCN(Cc2ccc(-c3ccc(-c4nc5ccc(F)cc5[nH]4)s3)cc2)C1 (centres undefined) | 0.65
40 | Cc1c(Cl)cccc1NC(=S)NN=Cc1ccccn1 | 0.6
41 | CNCCNCc1cccc(-c2ccc(-c3nc4ccc(C(F)(F)F)cc4[nH]3)cc2)c1 | 0.69
42 | Cc1c(CNCCCNc2cc(=O)c3ccccc3[nH]2)sc(-c2ccco2)c1Br | 1.02
43 | Cc1cccc(CN2CCCN(Cc3ccc(C(=O)Nc4ccc(C)c(F)c4)cc3)CC2)c1 | 1.06
44 | CN(C)CCNc1cc(-c2cccnc2)nc(-c2ccncc2)n1 | 0.6
45 | Cc1cc(N2CCOCC2)nc(Nc2ccc(NC(=O)Nc3ccc(F)cc3)cc2)n1 | 0.49
46 | O=C1C2=C(Nc3ccccc3SC2c2ccccc2)c2ccccc21 (centres undefined) | 0.33
47 | Cc1cccc2[nH]c(-c3cccc(-c4ccc(C(=O)N5CCCCC5C(C)O)cc4)c3)nc12 (centres undefined) | 0.37
48 | Cc1ccc(C(=O)Nc2ccc(Nc3ccnc4cc(-c5ccncc5)ccc34)cc2O)cc1 | 0.93

Row | Structure (SMILES) | IC50 [µM]
49 | Cn1cccc1CCNCc1ccc(-c2cccc(-c3nc4ccccc4[nH]3)c2)cc1 | 1.21
50 | COc1ccc(CCNC(=O)c2ccc(-n3cc(NC(=O)c4cccnc4)cn3)cc2)cc1OC | 1.07
51 | COc1cc2c(cc1NC(=O)CN1CCN(C(=O)c3ccco3)CC1)oc1ccccc12 | 0.42
52 | COC(=O)/C=C/c1ccc(C[C@@H](C)NC[C@H](O)c2cccc(C(F)(F)F)c2)cc1 | 0.73
53 | CCCNCc1ccc(-c2ccc(CN(Cc3cccs3)C(=O)C3CCN(C)CC3)cc2)nc1 | 0.66
54 | CCN(CC)CCN(Cc1ccc(-c2ccc(C(F)(F)F)cc2)cc1)C(=O)Cn1c(CCc2ccc(F)c(F)c2)nc(=O)c2ccccc21 | 1.58
55 | CCOC(=O)N[C@@H]1CN[C@@H](C#Cc2cc3c(Nc4ccc(OCc5cccc(F)c5)c(Cl)c4)ncnc3s2)C1 | 1.08
56 | Cc1ccc(C=C2SC(=Nc3ccccc3)NC2=O)c(C)c1 | 0.56
57 | Oc1cc(Nc2ccnc3cc(I)ccc23)ccc1F | 0.74
58 | O=C(/C=C/c1ccc(Cl)cc1)NCCCCCN1CCCC(C(=O)Nc2ccc(F)c(Cl)c2)C1 (centres undefined) | 1.12
59 | CC(C)C[C@H]1C(=O)N[C@H](C2Cc3ccccc3C2)C(=O)N1[C@@H](C(=O)Nc1ccccc1OCc1ccccc1)c1ccc(F)cc1F | 1.02
60 | CN1CCC(NCc2cccc(-c3cnc(NCc4ccccc4)nc3)c2)CC1 | 0.97
61 | Oc1ccc2[nH]c(-c3cccc(F)c3)nc2c1CN1CCC(N2CCCC2)CC1 | 0.18
62 | CC(C)(C)C1CCc2onc(C(=O)Nc3cc(Cl)ccc3O)c2C1 (centres undefined) | 0.78
63 | CC(CN(C)C)C(=O)Nc1ccc(-c2ccc(-c3nc4ccc(C(F)(F)F)cc4[nH]3)cc2)cc1 (centres undefined) | 0.75
64 | Cc1nnsc1C(=O)Nc1cccc(-c2cccc(-c3nc4ccc(F)cc4[nH]3)c2)c1 | 0.22
65 | FC(F)(F)Oc1ccc(Nc2cc(-c3ccncc3)nc(-c3cccnc3)n2)cc1 | 0.67
66 | CN1CCC(C(=O)N(Cc2ccc(-c3ccc(CNCCc4ccc(S(C)(=O)=O)cc4)cn3)cc2)Cc2ccc3c(c2)OCO3)CC1 | 1
67 | Cc1cc(N2CCOCC2)nc2ccc(NC(=O)c3cccc([N+](=O)[O-])c3)cc12 | 0.89
68 | CCOC(=O)N(C)/N=C/[C@H](CCc1ccccc1)NC(=O)[C@H](CC(C)C)NC(=O)c1cc2cccc(OC)c2o1 | 0.56
69 | COCCNCc1ccc(-c2ccc(CNC3CCN(Cc4ccccc4)CC3)cc2)cc1 | 0.67
70 | O=S(=O)(NCCN1CCCC1)c1ccc(-c2ccc(CNCc3ccsc3)cc2)cc1F | 0.81
71 | COc1ccc(N2CCN(CCCOc3ccc(NC(=O)c4cc(Cl)cc(Cl)c4)cc3)CC2)c(OC)c1 | 0.9
72 | CCCCCOc1ccc(C(O)C(CN2CCCCC2)c2ccccc2)cc1 (centres undefined) | 0.88

Row | Structure (SMILES) | IC50 [µM]
73 | CCOC(=O)N1CCN(CCCCNc2c3ccc(Cl)cc3nc3ccc(OC)cc23)CC1 | 0.12
74 | CN(C)C1CCN(Cc2ccc(N3CCN(Cc4cccc5[nH]ccc45)CC3)nc2)CC1 | 1.53
75 | CS(=O)(=O)c1ccc(CNCc2ccc(-c3cccc(-c4nc5ccc(C(F)(F)F)cc5[nH]4)c3)cc2)cc1 | 0.14
76 | O=C(N[C@@H](CC1CCCCC1)C(=O)NCc1cccc2ccccc12)c1ccc(O)c(-c2ccc(Cl)c(Cl)c2)c1 | 0.22
77 | CCc1cn2c3c(cc(C(=O)N[C@@H](Cc4ccccc4)[C@H](O)CNC4CCCCC4)cc13)N(CC)S(=O)(=O)CC2 | 0.03
78 | CC(C)c1ccc(CN2CCC(CNC(=O)c3cc(-c4cccc(Cl)c4)cs3)C2)cc1 (centres undefined) | 0.75
79 | COc1cc(Nc2nccc(N3CCC(NC(=O)C(C)c4ccc(Cl)cc4)C3)n2)cc(OC)c1OC (centres undefined) | 0.76
80 | COc1ccc2[nH]cc(C3=CCN(C[C@H]4C[C@@H]4C(=O)c4ccccc4)CC3)c2n1 | 0.27
81 | Cc1cc(NCCC(=O)Nc2ccccc2)nc(NCCc2cccnc2)n1 | 1.24
82 | OC(CN1c2ccccc2Sc2ccccc21)CN(C1CCCCC1)C1CCCCC1 (centres undefined) | 0.65
83 | CCOC(=O)c1ccc(NC(=O)N[C@@H](Cc2ccc(O)cc2)C(=O)NC2CCN(Cc3ccc4c(c3)OCO4)CC2)cc1 | 1.06
84 | CC1CCC(C[C@@H](C(=O)N[C@@H](CCC(=O)N2CCCCC2)C(=O)Nc2nccs2)[C@H](C(C)C)N(O)C=O)CC1 (some centres undefined) | 0.62
85 | COCc1cc(C)nc2sc(C(=O)Nc3cc(C(C)(C)C)ccc3O)c(N)c12 | 0.71
86 | CCCC(C)Nc1nc(C)cc(N[C@@H](CC(C)C)C(=O)NC2CCCC2)n1 (some centres undefined) | 1.08
87 | CC(=O)Nc1cccc(C(=O)Nc2cccc(-c3cccc(-c4nc5ccc(F)cc5[nH]4)c3)c2)c1 | 0.55
88 | Cc1[nH]c(C)c(-c2ccc(OCc3cccc(C(F)(F)F)c3)nc2)c(=O)c1Br | 0.04
89 | C(=NNc1nc2ccccc2[nH]1)c1ccccc1OCc1ccccc1 | 0.26
90 | C=C(C)COc1ccc(-c2n[nH]c(C(F)(F)F)c2-c2ccccc2OC)c(O)c1 | 0.78
91 | CN1CCN(CCCNCc2cccc(-c3ccc(CNCCc4ccccc4)cc3)c2)CC1 | 0.78
92 | COc1cc(F)c2nccc([C@@H](O)CN3CCC(NCc4ccc5c(n4)NC(=O)CS5)CC3)c2c1 | 0.56
93 | Cc1c(C(=O)N[C@@H](C)c2ccccc2)c2cc(O)c(Br)cc2n1C1CCCCC1 | 0.84
94 | O=C(/C=C/c1ccc(Cl)c(Cl)c1)NCCCCCN1CCC(C(=O)Nc2ccc3c(c2)OCO3)CC1 | 0.84
